Data taken from ChEMBL document CHEMBL3046443, “Lipid lowering and antioxidant activity of flavones in triton treated hyperlipidemic rats” (2011).

How the values were obtained:
Assay type in all cases: functional
Rattus norvegicus [1] = experiment: Antihyperlipidemic activity in Rattus norvegicus Charles Foster (rat) trition WR-1339-induced hyperlipidemic model assessed as reduction of total phospholipid level in plasma at 200 mg/kg, po; set-up: scale not given: the % may be the effect or the level left
Rattus norvegicus [2] = experiment: Antihyperlipidemic activity in Rattus norvegicus Charles Foster (rat) trition WR-1339-induced hyperlipidemic model assessed as reduction of total triglyceride level in plasma at 200 mg/kg, po; set-up: scale not given: the % may be the effect or the level left
Rattus norvegicus [3] = experiment: Antihyperlipidemic activity in Rattus norvegicus Charles Foster (rat) trition WR-1339-induced hyperlipidemic model assessed as reduction of total cholesterol level in plasma at 200 mg/kg, po; set-up: scale not given: the % may be the effect or the level left
[4] = Antioxidant activity assessed as inhibition of xanthine-xanthine oxidase generated superoxide anion radical production at 200 ug/ml after 30 min by NBT reduction assay
[5] = Antioxidant activity assessed as inhibition of xanthine-xanthine oxidase generated superoxide anion radical production at 100 ug/ml after 30 min by NBT reduction assay
[6] = Antioxidant activity assessed as hydroxyl radical scavenging activity at 100 ug/ml
[7] = Antioxidant activity assessed as hydroxyl radical scavenging activity at 200 ug/ml

SMILES | Activity (Rattus norvegicus [1]) [%] | Activity (Rattus norvegicus [2]) [%] | Activity (Rattus norvegicus [3]) [%] | inhibition [4] [%] | inhibition [5] [%] | Activity [6] [%] | Activity [7] [%]
C/C=C1\C(=O)C[C@H]2[C@@H]3CCC4=CC(=O)CC[C@]4(C)[C@H]3CC[C@]12C [GUGGULSTERONE] | 35 | 36 | 35 | – | – | – | –
C[C@@H]1O[C@@H](OC[C@H]2O[C@@H](Oc3c(-c4ccc(O)c(O)c4)oc4cc(O)cc(O)c4c3=O)[C@H](O)[C@@H](O)[C@@H]2O)[C@H](O)[C@H](O)[C@H]1O [RUTIN] | 10 | 11 | 8 | 35 | 18 | 21 | 32
O=c1c(O)c(-c2cc(O)c(O)c(O)c2)oc2cc(O)cc(O)c12 [MYRICETIN] | 25 | 24 | 24 | – | 27 | -36 | 53
OC[C@@H](O)[C@@H](O)[C@H](O)[C@H](O)CO | – | – | – | – | – | – | -48
O.O=C1CC(c2ccc(O)cc2)Oc2cc(O)cc(O)c21 (centres undefined) [NARINGENIN HYDRATE] | 27 | 26 | 27 | 34 | 19 | 26 | 38
